pEC50: −log10 of the molar value. Numbered stars: 1 amine (or outer) side, 2 acyl side, 3 side chain; on linkers, the order of the positions; unused ones are H or OH. Side chains are listed from the residue outwards. Peptide text beside a SMILES is read from it. * marks the point of attachment. C18 diacid = O=C(O)CCCCCCCCCCCCCCCCC(=O)*; γGlu = O=C(O)[C@H](CCC(=O)[*:2])N[*:1]; AEEA = NCCOCCOCC(=O)O

Sequence of glucagon receptor (P47871 26-477): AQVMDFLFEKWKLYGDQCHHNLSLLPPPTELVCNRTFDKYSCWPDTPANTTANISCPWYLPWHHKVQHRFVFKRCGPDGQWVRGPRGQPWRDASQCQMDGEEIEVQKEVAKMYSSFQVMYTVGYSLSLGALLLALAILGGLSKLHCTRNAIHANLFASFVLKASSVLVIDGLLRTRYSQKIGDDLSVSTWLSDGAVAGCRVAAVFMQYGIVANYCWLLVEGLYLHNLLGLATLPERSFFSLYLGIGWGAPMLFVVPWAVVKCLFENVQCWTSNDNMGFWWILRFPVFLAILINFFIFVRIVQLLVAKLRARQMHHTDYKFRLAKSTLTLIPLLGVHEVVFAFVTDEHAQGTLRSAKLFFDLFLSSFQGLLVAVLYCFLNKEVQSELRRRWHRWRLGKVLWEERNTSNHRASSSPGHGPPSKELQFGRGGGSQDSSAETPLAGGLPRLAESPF

The test addresses glucagon receptor (Homo sapiens, UniProt P47871). Briefly: cell-based.
`CC(C)C[C@H](NC(=O)[C@H](Cc1ccc(O)cc1)NC(=O)[C@H](CCCCN)NC(=O)[C@H](CO)NC(=O)[C@H](Cc1ccc(O)cc1)NC(=O)[C@H](CC(=O)O)NC(=O)[C@H](CO)NC(=O)[C@@H](NC(=O)[C@H](Cc1ccccc1)NC(=O)[C@@H](NC(=O)CNC(=O)[C@H](CCC(N)=O)NC(=O)[C@H](CO)NC(=O)[C@@H](N)Cc1c[nH]cn1)[C@@H](C)O)[C@@H](C)O)C(=O)N[C@@H](CC(=O)O)C(=O)N[C@@H](CO)C(=O)N[C@@H](CCCNC(=N)N)C(=O)N[C@@H](CCCNC(=N)N)C(=O)N[C@@H](C)C(=O)N[C@@H](CCC(N)=O)C(=O)N[C@@H](CC(=O)O)C(=O)N[C@@H](Cc1ccccc1)C(=O)N[C@H](C(=O)N[C@@H](CCC(N)=O)C(=O)N[C@@H](Cc1c[nH]c2ccccc12)C(=O)N[C@@H](CC(C)C)C(=O)N[C@@H](CC(C)C)C(=O)N[C@@H](CCCCNC(=O)CC[C@H](NC(=O)CC[C@H](NC(=O)COCCOCCNC(=O)COCCOCCNC(=O)CC[C@H](NC(=O)CCCCCCCCCCCCCCCCC(=O)O)C(=O)O)C(=O)O)C(=O)O)C(=O)N1CCC[C@H]1C(=O)O)C(C)C` [Example 86, N^ε28-[(4S)-4-carboxy-4-[[(4S)-4-carboxy-4-[[2-[2-[2-[[2-[2-[2-[[(4S)-4-carboxy-4-(17-carboxyheptadecanoylamino)butanoyl]amino]ethoxy]ethoxy]acetyl]amino]ethoxy]ethoxy]acetyl]amino]butanoyl]amino]butanoyl]-[Leu^27,Lys^28,Pro^29]-Glucagon] showed a pEC50 of 9.72.

On to `CC(C)C[C@H](NC(=O)[C@H](Cc1ccc(O)cc1)NC(=O)[C@H](CCCNC(=N)N)NC(=O)[C@H](CO)NC(=O)[C@H](Cc1ccc(O)cc1)NC(=O)[C@H](CC(=O)O)NC(=O)[C@H](CO)NC(=O)[C@@H](NC(=O)[C@H](Cc1ccccc1)NC(=O)[C@@H](NC(=O)CNC(=O)[C@H](CCC(N)=O)NC(=O)[C@H](CO)NC(=O)[C@@H](N)Cc1c[nH]cn1)[C@@H](C)O)[C@@H](C)O)C(=O)N[C@@H](CC(=O)O)C(=O)N[C@@H](CO)C(=O)N[C@@H](CCCNC(=N)N)C(=O)N[C@@H](CCCNC(=N)N)C(=O)N[C@@H](C)C(=O)N[C@@H](CCC(N)=O)C(=O)N[C@@H](CC(=O)O)C(=O)N[C@@H](Cc1ccccc1)C(=O)N[C@H](C(=O)N[C@@H](CCC(N)=O)C(=O)N[C@@H](Cc1c[nH]c2ccccc12)C(=O)N[C@@H](CC(C)C)C(=O)N[C@@H](CCCCNC(=O)CC[C@H](NC(=O)CC[C@H](NC(=O)COCCOCCNC(=O)COCCOCCNC(=O)CC[C@H](NC(=O)CCCCCCCCCCCCCCCCC(=O)O)C(=O)O)C(=O)O)C(=O)O)C(=O)N[C@@H](CC(N)=O)C(=O)N1CCC[C@H]1C(=O)O)C(C)C` [Example 87, N^ε27-[(4S)-4-carboxy-4-[[(4S)-4-carboxy-4-[[2-[2-[2-[[2-[2-[2-[[(4S)-4-carboxy-4-(17-carboxyheptadecanoylamino)butanoyl]amino]ethoxy]ethoxy]acetyl]amino]ethoxy]ethoxy]acetyl]amino]butanoyl]amino]butanoyl]-[Arg^12,Lys^27,Pro^29]-Glucagon], for which the pEC50 is 8.67.

As for `CC(C)C[C@H](NC(=O)[C@H](Cc1ccc(O)cc1)NC(=O)[C@H](CCCCN)NC(=O)[C@H](CO)NC(=O)[C@H](Cc1ccc(O)cc1)NC(=O)[C@H](CC(=O)O)NC(=O)[C@H](CO)NC(=O)[C@@H](NC(=O)[C@H](Cc1ccccc1)NC(=O)[C@@H](NC(=O)CNC(=O)[C@H](CCC(N)=O)NC(=O)[C@H](CO)NC(=O)[C@@H](N)Cc1c[nH]cn1)[C@@H](C)O)[C@@H](C)O)C(=O)N[C@@H](CC(=O)O)C(=O)N[C@@H](CO)C(=O)N[C@@H](CCCNC(=N)N)C(=O)N[C@@H](CCCNC(=N)N)C(=O)N[C@@H](C)C(=O)N[C@@H](CCC(N)=O)C(=O)N[C@@H](CCC(=O)O)C(=O)N[C@@H](Cc1ccccc1)C(=O)N[C@H](C(=O)N[C@@H](CCCCNC(=O)CC[C@H](NC(=O)CC[C@H](NC(=O)COCCOCCNC(=O)CC[C@H](NC(=O)CCCCCCCCCCCCCCCCC(=O)O)C(=O)O)C(=O)O)C(=O)O)C(=O)N[C@@H](Cc1c[nH]c2ccccc12)C(=O)N[C@@H](CC(C)C)C(=O)N[C@@H](CC(C)C)C(=O)N[C@@H](CO)C(=O)N[C@H](C(=O)O)[C@@H](C)O)C(C)C` [Example 91, N^ε24-[(4S)-4-carboxy-4-[[(4S)-4-carboxy-4-[[2-[2-[2-[[(4S)-4-carboxy-4-(17-carboxyheptadecanoylamino)butanoyl]amino]ethoxy]ethoxy]acetyl]amino]butanoyl]amino]butanoyl]-[Glu21,Lys24,Leu27,Ser28]-Glucagon], the pEC50 was 10.28.

In the case of `CC(C)C[C@H](NC(=O)[C@H](Cc1ccc(O)cc1)NC(=O)[C@H](CCCCN)NC(=O)[C@H](CO)NC(=O)[C@H](Cc1ccc(O)cc1)NC(=O)[C@H](CCC(=O)O)NC(=O)[C@H](CO)NC(=O)[C@@H](NC(=O)[C@H](Cc1ccccc1)NC(=O)[C@@H](NC(=O)CNC(=O)[C@H](CCC(N)=O)NC(=O)[C@H](CO)NC(=O)[C@@H](N)Cc1c[nH]cn1)[C@@H](C)O)[C@@H](C)O)C(=O)N[C@@H](CC(=O)O)C(=O)N[C@@H](CO)C(=O)N[C@@H](CCCNC(=N)N)C(=O)N[C@@H](CCCNC(=N)N)C(=O)N[C@@H](C)C(=O)N[C@@H](CCC(N)=O)C(=O)N[C@@H](CC(=O)O)C(=O)N[C@@H](Cc1ccccc1)C(=O)N[C@H](C(=O)N[C@@H](CCCCNC(=O)CC[C@H](NC(=O)CC[C@H](NC(=O)COCCOCCNC(=O)CC[C@H](NC(=O)CCCCCCCCCCCCCCCCC(=O)O)C(=O)O)C(=O)O)C(=O)O)C(=O)N[C@@H](Cc1c[nH]c2ccccc12)C(=O)N[C@@H](CC(C)C)C(=O)N[C@@H](CC(C)C)C(=O)N[C@@H](CO)C(=O)N[C@H](C(=O)O)[C@@H](C)O)C(C)C` [Example 92, N^ε24-[(4S)-4-carboxy-4-[[(4S)-4-carboxy-4-[[2-[2-[2-[[(4S)-4-carboxy-4-(17-carboxyheptadecanoylamino)butanoyl]amino]ethoxy]ethoxy]acetyl]amino]butanoyl]amino]butanoyl]-[Glu^9,Lys^24,Leu^27,Ser^28]-Glucagon], the pEC50 was 8.66.

With `CC(C)C[C@H](NC(=O)[C@H](Cc1ccc(O)cc1)NC(=O)[C@H](CCCCN)NC(=O)[C@H](CO)NC(=O)[C@H](Cc1ccc(O)cc1)NC(=O)[C@H](CC(=O)O)NC(=O)[C@H](CO)NC(=O)[C@@H](NC(=O)[C@H](Cc1ccccc1)NC(=O)[C@@H](NC(=O)CNC(=O)[C@H](CCC(N)=O)NC(=O)[C@H](CO)NC(=O)[C@@H](N)Cc1c[nH]cn1)[C@@H](C)O)[C@@H](C)O)C(=O)N[C@@H](CC(=O)O)C(=O)N[C@@H](CO)C(=O)N[C@@H](CCCNC(=N)N)C(=O)N[C@@H](CCCNC(=N)N)C(=O)N[C@@H](C)C(=O)N[C@@H](CCC(=O)O)C(=O)N[C@@H](CCC(=O)O)C(=O)N[C@@H](Cc1ccccc1)C(=O)N[C@H](C(=O)N[C@@H](CCCCNC(=O)CC[C@H](NC(=O)CC[C@H](NC(=O)COCCOCCNC(=O)CC[C@H](NC(=O)CCCCCCCCCCCCCCCCC(=O)O)C(=O)O)C(=O)O)C(=O)O)C(=O)N[C@@H](Cc1c[nH]c2ccccc12)C(=O)N[C@@H](CC(C)C)C(=O)N[C@@H](CC(C)C)C(=O)N[C@@H](CO)C(=O)N[C@H](C(=O)O)[C@@H](C)O)C(C)C` [Example 93, N^ε24-[(4S)-4-carboxy-4-[[(4S)-4-carboxy-4-[[2-[2-[2-[[(4S)-4-carboxy-4-(17-carboxyheptadecanoylamino)butanoyl]amino]ethoxy]ethoxy]acetyl]amino]butanoyl]amino]butanoyl]-[Glu^20,Glu^21,Lys^24,Leu^27,Ser^28]-Glucagon] (H-HSQGTFTSDYSKYLDSRRAEEFVK([γGlu-γGlu-AEEA-γGlu-C18 diacid])WLLST-OH), the pEC50 was 9.92.

Compound `CC(C)C[C@H](NC(=O)[C@H](Cc1ccc(O)cc1)NC(=O)[C@H](CCCCN)NC(=O)[C@H](CO)NC(=O)[C@H](Cc1ccc(O)cc1)NC(=O)[C@H](CC(=O)O)NC(=O)[C@H](CO)NC(=O)[C@@H](NC(=O)[C@H](Cc1ccccc1)NC(=O)[C@@H](NC(=O)CNC(=O)[C@H](CCC(N)=O)NC(=O)[C@H](CO)NC(=O)[C@@H](N)Cc1c[nH]cn1)[C@@H](C)O)[C@@H](C)O)C(=O)N[C@@H](CC(=O)O)C(=O)N[C@@H](CO)C(=O)N[C@@H](CCCNC(=N)N)C(=O)N[C@@H](CCCNC(=N)N)C(=O)N[C@@H](C)C(=O)N[C@@H](CCCCNC(=O)CC[C@H](NC(=O)CC[C@H](NC(=O)COCCOCCNC(=O)COCCOCCNC(=O)CC[C@H](NC(=O)CCCCCCCCCCCCCCCCC(=O)O)C(=O)O)C(=O)O)C(=O)O)C(=O)N[C@@H](CC(=O)O)C(=O)N[C@@H](Cc1ccccc1)C(=O)N[C@H](C(=O)N[C@@H](CCC(N)=O)C(=O)N[C@@H](Cc1c[nH]c2ccccc12)C(=O)N[C@@H](CC(C)C)C(=O)N[C@@H](CC(C)C)C(=O)N[C@@H](CC(N)=O)C(=O)N[C@H](C(=O)O)[C@@H](C)O)C(C)C` [Example 98, N^ε20-[(4S)-4-carboxy-4-[[(4S)-4-carboxy-4-[[2-[2-[2-[[2-[2-[2-[[(4S)-4-carboxy-4-(17-carboxyheptadecanoylamino)butanoyl]amino]ethoxy]ethoxy]acetyl]amino]ethoxy]ethoxy]acetyl]amino]butanoyl]amino]butanoyl]-[Lys^20,Leu^27]-Glucagon] gave a pEC50 of 10.24.

The values are drawn from patent publication US20160271263A1 (Novo Nordisk A/S, priority 2010, published 2016).
